Measurements taken from US20100286603A1, “KIT AND METHOD FOR PREPARATION OF A DEGARELIX SOLUTION” (priority 2009, published 2010).
Where a SMILES comes first, the peptide text is derived from it. [ ]: non-standard residue; d: D form. The star is where a group is joined. dPhe(4-NHCONH2) = NC(=O)Nc1ccc(C[C@@H](N)C(=O)O)cc1; Dihydroorotyl(S) = O=C1C[C@@H](C(=O)*)NC(=O)N1; dPhe(4-Cl) = N[C@H](Cc1ccc(Cl)cc1)C(=O)O; Phe(4-NH2) = Nc1ccc(C[C@H](N)C(=O)O)cc1; d2Nal = N[C@H](Cc1ccc2ccccc2c1)C(=O)O; Lys(iPr) = CC(C)NCCCC[C@H](N)C(=O)O; d3Pal = N[C@H](Cc1cccnc1)C(=O)O

What was measured:
[1] = Reconstitution of lyophilised Degarelix with water for injection using an automatic swirling machine (laboratory tests); type: physicochemical; conditions: tested for the 80 mg and 120 mg doses
Procedure: For example, laboratory tests have shown that average reconstitution times when an automatic swirling machine is used are in the region of 0.8 minutes and the slowest times for reconstitution are in the region of 1.25 to 1.5 minutes (tested for the 80 mg and 120 mg doses). This compares well with the present system of swirling by hand, where the slowest times for reconstitution are near to 15 minutes. An automatic mixing apparatus may enable a reconstitution protocol to be formulated in which the Degarelix and WFI are mixed for a relatively short period of time, after which the Degarelix should in the vast majority of cases have gone into solution, as compared with mixing by hand. It is contemplated that the care-provider may check the clarity of the solution after it has been reconstituted with the automatic mixing apparatus and, if fully reconstituted, administer the solution to the patient.

testosterone = conditions: used in a clinical preparation; cited from earlier work
[2] = Reconstitution of lyophilised Degarelix with water for injection, swirled by hand (laboratory testing); type: physicochemical
Procedure: The WFI in the syringe is then transferred into the Degarelix vial (I) and the assembly of vial, needle, and syringe is swirled by hand to ensure that the lyophilised Degarelix has completely gone into solution. […] In laboratory testing, the reconstitution times for hand swirled Degarelix solutions comprising 80 mg and 120 mg of lyophilised Degarelix are about 5 minutes and 7 minutes respectively. The slowest reconstitution times are considerably greater, however, and can be up to 15 minutes. To ensure that the Degarelix drug product has been fully reconstituted, the care-provider is required to swirl the assembly, by hand, for a period of up to 15 minutes. To assess whether the drug has been reconstituted, the care-provider periodically checks the vial to determine whether the solution is completely clear or not.

average reconstitution time [1]: ~0.8 min
reconstitution time ([2]; 80 mg of lyophilised Degarelix): about 5 minutes
reconstitution time ([2]; 120 mg of lyophilised Degarelix): ~7 min
Structure (SMILES): CC(=O)N[C@H](Cc1ccc2ccccc2c1)C(=O)N[C@H](Cc1ccc(Cl)cc1)C(=O)N[C@H](Cc1cccnc1)C(=O)N[C@@H](CO)C(=O)N[C@@H](Cc1ccc(NC(=O)[C@@H]2CC(=O)NC(=O)N2)cc1)C(=O)N[C@H](Cc1ccc(NC(N)=O)cc1)C(=O)N[C@@H](CC(C)C)C(=O)N[C@@H](CCCCNC(C)C)C(=O)N1CCC[C@H]1C(=O)N[C@H](C)C(N)=O [Degarelix] (Ac-[d2Nal][dPhe(4-Cl)][d3Pal]S[Phe(4-NH2)](Dihydroorotyl(S))[dPhe(4-NHCONH2)]L[Lys(iPr)]P[dA]-NH2)
levels of testosterone (testosterone): reduction in levels of testosterone
